Like-named read-outs stand apart in the source and are kept apart here.
Legend:
Cystine reactivity assay = test: Cystine reactivity assay; design: Cystine Reactivity: unit not given here; conditions: for Cystine Reactivity Assay (30° C.) (%) Mean Value: percentage of 3 mM cysteamine
Experimental: Cystine reactivity was assessed by incubating 3 mM test compound with 100 nM BODIPY® FL L-Cystine (Life Tech.) at 30° C., pH 7.4 in phosphate buffer. […] Compound cystine reactivity was expressed as a percentage of that of 3 mM cysteamine.
Under resting conditions, the inherent fluorescence of BODIPY® FL L-cystine was very low due to the spatial proximity of the two BODIPY molecules causing quenching. Under chemical reaction (disruption of the S—S bond), the spatial distance was increased, the quenching lost, and measured fluorescence increased. Time (minutes) vs. fluorescence (relative fluorescence units—RFU) was plotted and linear regression analysis was performed to generate a slope value corresponding to the reaction rate in RFU/min and an R2 value.

[1] = tested on: cystinotic human fibroblasts; test: Cystine depletion assay; type: cell-based; conditions: for Emax: Homo sapiens, Fibroblast, 1 h, relative to cystine depletion by cysteamine (100%) at a similar concentration; for cystine depletion levels (in words): compared to cysteamine; for Cystine depletion: compound at 50 μM or 100 μM, Tables 1-3
Experimental: The ability of test compounds to deplete cystine from cystinotic human fibroblasts (Coriell) was determined by incubating compounds with cells for 60 min at 37° C., 95% (v/v) air/5% (v/v) CO2 in Minimal Essential Media Eagle. Treated cell samples were subsequently harvested, then homogenized to ensure plasma and lysosomal membrane disruption. Protein was removed by acid precipitation and cystine in the supernatant measured using LC-MS/MS and HILIC chromatography. Protein levels were determined and cystine levels reported as nM per mg/ml protein. Cystine levels after test compound treatment were expressed as a percentage of that of untreated control cells.
Compounds were assayed at a concentration of 50 μM or 100 μM according to the general methods described above.
Cystine depletion levels for the compounds are expressed in Table 4 as a percent relative to the cystine depletion achieved by cysteamine (c.f. cysteamine 100%) at a similar concentration.
Cystine depletion levels for each of the compounds in Table 5 are expressed as a percent relative to the cystine depletion achieved by cysteamine (c.f. cysteamine 100%) at a similar concentration.

human recombinant ADO = target: T1, human recombinant ADO (Homo sapiens, UniProt Q96SZ5); type: in vitro ADME
T1 sequence (Q96SZ5 1-270): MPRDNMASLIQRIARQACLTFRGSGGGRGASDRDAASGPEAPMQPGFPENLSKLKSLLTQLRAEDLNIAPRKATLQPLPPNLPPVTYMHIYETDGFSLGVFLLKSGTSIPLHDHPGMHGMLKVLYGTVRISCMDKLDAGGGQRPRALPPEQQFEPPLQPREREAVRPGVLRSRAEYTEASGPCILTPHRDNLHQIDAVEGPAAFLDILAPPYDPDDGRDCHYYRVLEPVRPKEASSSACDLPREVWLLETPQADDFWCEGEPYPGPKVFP
Experimental: The rate of ADO metabolism was determined by incubating 15 mM test compound with 60 μg/ml human recombinant ADO and 20 nM MitoXpress® O2-sensitive fluorescent probe (Luxcel) at 37° C. in assay buffer/salt in a sealed assay chamber. The initial rate of fluorescence (excitation λ380 nm and emission λ650 nm) increase was used to measure ADO-dependent oxygen depletion activity. The ability of ADO to metabolize compounds and concomitantly consume oxygen was expressed relative to that of 15 mM cysteamine.

St-HdhQ^111/111 cells = test: Glutamate-induced neuronal excitotoxicity assay; type: cell-based; conditions: STHdhQ111, 6 mM L-glutamate 24 hours, % of effect of 100 μM cysteamine; for viability at 10 µM: read-out: HdhQ^111/111 cell % survival (mean ± STD) Test Conc. 10 μM; for viability at 100 µM: read-out: HdhQ^111/111 cell % survival (mean ± STD) Test Conc. 100 μM
Experimental: The ability of test compounds to inhibit glutamate-induced excitotoxicity (neuroprotection) in St-HdhQ^111/111 cells was determined by incubating compounds with cells for 60 min at 33° C., 95% (v:v) air/5% (v:v) CO2 in Dulbecco's Modified Eagle Media. Following this, excitotoxicity was induced by the addition of 6 mM L-glutamate for 24 hours. Cell viability was assessed by measuring ATP levels using a luminescent-based CellTitre Glo assay (Promega). Compound neuroprotection (% cell survival) was expressed as a % of the effect recorded with 100 μM cysteamine (denoted as 100% cell survival).

[2] = Table 5, read-out: Cystine Depletion (%) Mean Value
[3] = Table 4, read-out: Cystine Depletion (%)

CCN(CC)C(=S)SSC(=S)N(CC)CC [Compound 981]
Cystine Reactivity Assay (30° C.) (%) Mean Value (Cystine reactivity assay; Table 5): <50%
Emax [1, 2]: 25%
ADO Metabolism Assay (%) Mean Value (human recombinant ADO; human, 15 mM): <25%

CN[C@H]1C[C@H](S)C1 [Compound 149609]
Cystine Reactivity Assay (30° C.) (%) Mean Value (Cystine reactivity assay; Table 5): <50%
Emax [1, 2]: 50%
ADO Metabolism Assay (%) Mean Value (human recombinant ADO; human, 15 mM): <25%

NC1CC(O)(CS)C1 (centres unmarked) [Compound 149610]
Cystine Reactivity Assay (30° C.) (%) Mean Value (Cystine reactivity assay; Table 5): <50%
Emax [1, 2]: 15%
ADO Metabolism Assay (%) Mean Value (human recombinant ADO; human, 15 mM): <25%

CC(C)(C)N1CCC(S)CC1 [Compound 145584]
Cystine Reactivity Assay (30° C.) (%) Mean Value (Cystine reactivity assay; Table 5): >90%
Emax [1, 2]: 0%
ADO Metabolism Assay (%) Mean Value (human recombinant ADO; human, 15 mM): <25%

OCCC1(S)CNC1 [Compound 145695]
Cystine Reactivity Assay (30° C.) (%) Mean Value (Cystine reactivity assay; Table 5): >90%
viability at 10 µM (St-HdhQ^111/111 cells): 8 ± 10%
viability at 100 µM (St-HdhQ^111/111 cells): 74 ± 10%
Emax [1, 2]: 0%
ADO Metabolism Assay (%) Mean Value (human recombinant ADO; human, 15 mM): <25%

S[C@@H]1CCCNC1 [Compound 42248]
Cystine Reactivity Assay (30° C.) (%) Mean Value (Cystine reactivity assay; Table 4): >90%
viability at 10 µM (St-HdhQ^111/111 cells): 2 ± 7%
viability at 100 µM (St-HdhQ^111/111 cells): 81 ± 6%
Emax [1, 3]: 103%
ADO Metabolism Assay (%) Mean Value (human recombinant ADO; human, 15 mM): <25%

C[C@@H]1CNCC[C@@H]1S [Compound 42615]
Cystine Reactivity Assay (30° C.) (%) Mean Value (Cystine reactivity assay; Table 4): <50%
Emax [1, 3]: 106%
ADO Metabolism Assay (%) Mean Value (human recombinant ADO; human, 15 mM): <25%

NC1CCCC(S)C1 (centres unmarked) [Compound 145693]
Cystine Reactivity Assay (30° C.) (%) Mean Value (Cystine reactivity assay; Table 5): 50-90%
Emax [1, 2]: 81%
ADO Metabolism Assay (%) Mean Value (human recombinant ADO; human, 15 mM): <25%

CC(C)(S)CN [Compound 3a]
Cystine Reactivity (Cystine reactivity assay; Tables 1-3): 2284
cystine depletion levels (in words) [1]: slightly decreased
Cystine depletion [1]: 32%
metabolism by ADO compared to cysteamine (in words) (human recombinant ADO): significantly reduced metabolism by ADO compared to cysteamine
ADO metabolism (human recombinant ADO; human, 15 mM): 14%

C[C@H](CS)C(=O)N1CCC[C@H]1C(=O)O [Compound 653]
Cystine Reactivity Assay (30° C.) (%) Mean Value (Cystine reactivity assay; Table 5): <50%
Emax [1, 2]: 23%
ADO Metabolism Assay (%) Mean Value (human recombinant ADO; human): <25%

Cn1cc[nH]c1=S [Compound 1176]
Cystine Reactivity Assay (30° C.) (%) Mean Value (Cystine reactivity assay; Table 5): <50%
Emax [1, 2]: 10%
ADO Metabolism Assay (%) Mean Value (human recombinant ADO; human, 15 mM): <25%

CC1(S)CCCNC1 (centres unmarked) [Compound 42388]
Cystine Reactivity Assay (30° C.) (%) Mean Value (Cystine reactivity assay; Table 4): >90%
Cystine Reactivity Assay (30° C.) (%) Mean Value (Cystine reactivity assay; Table 5): >90%
viability at 10 µM (St-HdhQ^111/111 cells): 5 ± 6%
viability at 100 µM (St-HdhQ^111/111 cells): 91 ± 5%
Emax [1, 3]: 97%
Emax [1, 2]: 63%
ADO Metabolism Assay (%) Mean Value (human recombinant ADO; human, 15 mM): <25%

N[C@H]1C[C@H](S)C1 [Compound 42460]
Cystine Reactivity Assay (30° C.) (%) Mean Value (Cystine reactivity assay; Table 4): 59-90%
viability at 10 µM (St-HdhQ^111/111 cells): 3 ± 5%
viability at 100 µM (St-HdhQ^111/111 cells): 95 ± 9%
Emax [1, 3]: 111%
ADO Metabolism Assay (%) Mean Value (human recombinant ADO; human, 15 mM): <25%

CS(=O)(=O)N1CCNC(CS)C1 (centres unmarked) [Compound 145694]
Cystine Reactivity Assay (30° C.) (%) Mean Value (Cystine reactivity assay; Table 5): >90%
viability at 10 µM (St-HdhQ^111/111 cells): 2 ± 10%
viability at 100 µM (St-HdhQ^111/111 cells): 15 ± 15%
Emax [1, 2]: 0%
ADO Metabolism Assay (%) Mean Value (human recombinant ADO; human, 15 mM): <25%

C[C@H]1CNCC[C@@H]1S [Compound 42614]
viability at 10 µM (St-HdhQ^111/111 cells): 2 ± 6%
viability at 100 µM (St-HdhQ^111/111 cells): 59 ± 12%
Emax [1, 3]: 117%
ADO Metabolism Assay (%) Mean Value (human recombinant ADO; human, 15 mM): <25%

C[C@H]1CC[C@H](S)CN1 [Compound 42613]
Cystine Reactivity Assay (30° C.) (%) Mean Value (Cystine reactivity assay; Table 4): >90%
Emax [1, 3]: 109%
ADO Metabolism Assay (%) Mean Value (human recombinant ADO; human, 15 mM): <25%

OCC1(S)CCCNC1 (centres unmarked) [Compound 150730]
Cystine Reactivity Assay (30° C.) (%) Mean Value (Cystine reactivity assay; Table 5): >90%
Emax [1, 2]: 14%
ADO Metabolism Assay (%) Mean Value (human recombinant ADO; human, 15 mM): <25%

NCCCNCCS [Compound 145564]
Cystine Reactivity Assay (30° C.) (%) Mean Value (Cystine reactivity assay; Table 5): >90%
Emax [1, 2]: 36%
ADO Metabolism Assay (%) Mean Value (human recombinant ADO; human, 15 mM): 25-75%

SCc1ccccn1 [Compound 42213]
Cystine Reactivity Assay (30° C.) (%) Mean Value (Cystine reactivity assay; Table 4): >90%
Emax [1, 3]: 0%
ADO Metabolism Assay (%) Mean Value (human recombinant ADO; human, 15 mM): >75%

NC1CC(S)C1 (centres unmarked) [Compound 42209]
Cystine Reactivity Assay (30° C.) (%) Mean Value (Cystine reactivity assay; Table 4): 59-90%
Emax [1, 3]: 99%
ADO Metabolism Assay (%) Mean Value (human recombinant ADO; human, 15 mM): <25%

N[C@H]1CC[C@@H](S)CC1 [Compound 42491]
Cystine Reactivity Assay (30° C.) (%) Mean Value (Cystine reactivity assay; Table 4): <50%
ADO Metabolism Assay (%) Mean Value (human recombinant ADO; human, 15 mM): <25%

SC1CCCNC1 (centres unmarked) [Compound 42208]
Cystine Reactivity Assay (30° C.) (%) Mean Value (Cystine reactivity assay; Table 4): >90%
Emax [1, 3]: 102%
ADO Metabolism Assay (%) Mean Value (human recombinant ADO; human, 15 mM): <25%

O=S(=O)([O-])CCS.[Na+] [Compound 145566]
Cystine Reactivity Assay (30° C.) (%) Mean Value (Cystine reactivity assay; Table 5): <50%
Emax [1, 2]: 16%
ADO Metabolism Assay (%) Mean Value (human recombinant ADO; Table 5, relative to 15 mM cysteamine): <25%

SC1CC2(CNC2)C1 [Compound 42611]
Cystine Reactivity Assay (30° C.) (%) Mean Value (Cystine reactivity assay; Table 4): >90%
Emax [1, 3]: 55%
ADO Metabolism Assay (%) Mean Value (human recombinant ADO; human, 15 mM): <25%

CNC1CC(S)C1 (centres unmarked) [Compound 149608]
Cystine Reactivity Assay (30° C.) (%) Mean Value (Cystine reactivity assay; Table 5): <50%
Emax [1, 2]: 55%
ADO Metabolism Assay (%) Mean Value (human recombinant ADO; human, 15 mM): <25%

SCC1COCCN1 (centres unmarked) [Compound 145591]
Cystine Reactivity Assay (30° C.) (%) Mean Value (Cystine reactivity assay; Table 5): 50-90%
Emax [1, 2]: 61%
ADO Metabolism Assay (%) Mean Value (human recombinant ADO; human, 15 mM): <25%

NC1(CS)CC1 [Compound 3d]
cystine depletion levels (in words) [1]: slightly decreased
Cystine depletion [1]: 55%
metabolism by ADO compared to cysteamine (in words) (human recombinant ADO): significantly reduced metabolism by ADO compared to cysteamine
ADO metabolism (human recombinant ADO; human, 15 mM): 14%

SC1CCCCNC1 (centres unmarked) [Compound 42345]
Cystine Reactivity Assay (30° C.) (%) Mean Value (Cystine reactivity assay; Table 4): >90%
Emax [1, 3]: 50%
ADO Metabolism Assay (%) Mean Value (human recombinant ADO; human, 15 mM): <25%

C1CNC[C@H](SS[C@@H]2CCCNC2)C1 [Compound 145609]
Emax [1, 2]: 121%
ADO Metabolism Assay (%) Mean Value (human recombinant ADO; human, 15 mM): <25%

CC(CS)Cc1ccccc1 (centres unmarked) [Compound 2403]
Cystine Reactivity Assay (30° C.) (%) Mean Value (Cystine reactivity assay; Table 5): <50%
Emax [1, 2]: 19%
ADO Metabolism Assay (%) Mean Value (human recombinant ADO; human, 15 mM): <25%

SC12CCN(CC1)CC2 [Compound 42389]
Cystine Reactivity Assay (30° C.) (%) Mean Value (Cystine reactivity assay; Table 4): 50-90%
Emax [1, 3]: 36%
ADO Metabolism Assay (%) Mean Value (human recombinant ADO; human, 15 mM): <25%

Reference: patent US10906904B2, “ADO-resistant cysteamine analogs and uses thereof” (HORIZON ORPHAN LLC, priority 2015, dated 2021)
